From US20240174618A1, “SUBSTITUTED (2-HETEROARYLOXYPHENYL)SULFONATES, SALTS THEREOF AND THEIR USE AS HERBICIDAL AGENTS” (Bayer Aktiengesellschaft, priority 2021, published 2024)

Columns and labels:
Format in all cases: in vivo
Poa annua (POAAN) = experiment: B. Herbicidal post-emergence efficacy, POAAN
Procedure, shortened: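 Post-emergence greenhouse test: one-leaf-stage plants, compound (WP/EC, +0.5% additive, 600 L/ha water, ≤1280 g/ha) applied to green parts; % efficacy scored visually vs untreated after ~3 wk; 100% = plants died.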

[1] = test system: Amaranthus retroflexus (AMARE); experiment: A. Herbicidal pre-emergence efficacy, AMARE
Procedure, shortened: (§1)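 Applied before emergence onto covering soil at rates of 1280 g/ha or less, using 600 L/ha spray water with 0.5% additive. Scoring: visual % efficacy after ~3 weeks, greenhouse.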

[2] = test system: Abutilon theophrasti (ABUTH); experiment: A. Herbicidal pre-emergence efficacy, ABUTH; settings: scored visually after about 3 weeks vs untreated controls
Procedure, shortened: as §1

[3] = test system: Echinochloa crus-galli (ECHCG); experiment: E. Herbicidal post-emergence efficacy, ECHCG
Procedure, shortened: (§2)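 Compounds applied at 320 g/ha or less as a foliar spray (600 l/ha, 0.5% additive) to one-leaf-stage greenhouse plants grown in sandy loam. Damage is visually scored in percent relative to untreated plants after about 3 weeks.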

[4] = test system: Digitaria sanguinalis (DIGSA); experiment: C. Herbicidal pre-emergence efficacy, DIGSA; settings: scored after about 3 weeks
Procedure, shortened: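 Pre-emergence test: formulated compounds sprayed as aqueous suspension or emulsion with 0.5% additive at 600 l/ha onto soil covering sown seeds, at rates corresponding to 320 g/ha or less. After about 3 weeks in greenhouse, efficacy scored visually as percent versus untreated controls (100% = plants dead).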

[5] = test system: Abutilon theophrasti (ABUTH); experiment: E. Herbicidal post-emergence efficacy, ABUTH
Procedure, shortened: as §2

[6] = test system: Polygonum convolvulus (POLCO); experiment: E. Herbicidal post-emergence efficacy, POLCO
Procedure, shortened: as §2

Kochia scoparia (KCHSC) = experiment: C. Herbicidal pre-emergence efficacy, KCHSC
Source text: Seeds of monocotyledonous and dicotyledonous weed plants and crop plants were placed in plastic or organic planting pots and covered with soil. The compounds of the invention, formulated in the form of wettable powders (WP) or as emulsion concentrates (EC), were then applied to the surface of the covering soil as aqueous suspension or emulsion with addition of 0.5% additive at a water application rate equivalent to 600 l/ha (converted). After the treatment, the pots were placed in a greenhouse and kept under good growth conditions for the test plants. After about 3 weeks, the efficacy of the preparations was scored visually in comparison with untreated controls as percentages. For example, • 100% efficacy=plants have died, • 0% efficacy=like untreated control plants.
Tables C1a to C14b below show the effects of selected compounds of the general formula (I) according to table 1 on various harmful plants at an application rate corresponding to 320 g/ha or less, which were obtained by the experimental procedure mentioned above.

Compound | Post-emergence efficacy against POAAN (Poa annua (POAAN); 320 g/ha) | Post-emergence efficacy against POAAN (Poa annua (POAAN); 1280 g/ha) | Pre-emergence efficacy against AMARE in % ([1]; 80 g/ha) | Pre-emergence efficacy against AMARE in % ([1]; 320 g/ha) | Pre-emergence efficacy against AMARE in % ([1]; 1280 g/ha) | Pre-emergence efficacy against ABUTH ([2]; 80 g/ha) | Pre-emergence efficacy against ABUTH ([2]; 320 g/ha) | Pre-emergence efficacy against ABUTH ([2]; 1280 g/ha) | Post-emergence efficacy against ECHCG in % ([3]; application rate 320 g/ha) | Pre-emergence efficacy against DIGSA ([4]; 80 g/ha) | Pre-emergence efficacy against DIGSA ([4]; 320 g/ha) | Post-emergence efficacy against ABUTH in % ([5]; application rate 320 g/ha) | Post-emergence efficacy against POLCO in % ([6]; application rate 80 g/ha) | Post-emergence efficacy against POLCO in % ([6]; application rate 320 g/ha) | Post-emergence efficacy against POAAN (Poa annua (POAAN); 80 g/ha) | Pre-emergence efficacy against KCHSC in % (Kochia scoparia (KCHSC); application rate 80 g/ha) | Pre-emergence efficacy against KCHSC in % (Kochia scoparia (KCHSC); application rate 320 g/ha) | Post-emergence efficacy against ABUTH in % ([5]; application rate 80 g/ha) | Post-emergence efficacy against ECHCG in % ([3]; application rate 80 g/ha)
O=S(=O)(CCCCCl)Oc1ccccc1Oc1ncc(Cl)cn1 [Example I-15] | 90% | 90% | 100% | 100% | 100% | 100% | 100% | 100% | 80% | 100% | 100% | 80% | 80% | 100% | – | – | – | – | –
O=S(=O)(CC1CC1)Oc1ccccc1Oc1ncc(Cl)cn1 [Example I-23] | 90% | 100% | 90% | 100% | 100% | 90% | 90% | 100% | 100% | 100% | 100% | 90% | 100% | 100% | 90% | – | – | – | –
O=S(=O)(CCC(F)(F)F)Oc1c(Cl)cccc1Oc1ncc(Br)cn1 [Example I-32] | 100% | 100% | 90% | 90% | 100% | – | 90% | 100% | 90% | – | 100% | 80% | 80% | 100% | 90% | 100% | 100% | 80% | –
O=S(=O)(CCCC(F)(F)F)Oc1c(Cl)cccc1Oc1ncc(Br)cn1 [Example I-34] | 100% | 100% | 90% | 90% | 100% | – | – | 90% | 90% | 90% | 100% | 80% | – | 100% | – | 90% | 100% | 80% | –
C=CCS(=O)(=O)Oc1ccccc1Oc1ncc(Cl)cn1 [Example I-36] | – | 90% | – | 100% | 100% | – | 100% | 100% | – | – | 100% | – | – | – | – | – | 100% | – | –
O=S(=O)(CCCC(F)(F)F)Oc1c(F)cccc1Oc1ncc(F)cn1 [Example I-42] | – | – | 100% | 100% | 100% | 100% | 100% | 100% | 100% | 100% | 100% | 100% | 100% | 100% | – | 100% | 100% | 80% | 100%
O=S(=O)(CCC(F)(F)F)Oc1c(Br)cccc1Oc1ncc(F)cn1 [Example I-43] | – | – | 100% | 100% | 100% | – | 100% | 100% | – | – | 100% | – | – | 90% | – | 100% | 100% | – | –
Cc1cccc(Oc2ncc(F)cn2)c1OS(=O)(=O)CCC(F)(F)F [Example I-45] | – | – | 90% | 100% | 100% | 100% | 100% | 100% | – | 100% | 100% | – | – | 100% | – | 90% | 100% | – | –
Cc1cccc(Oc2ncc(F)cn2)c1OS(=O)(=O)CCCC(F)(F)F [Example I-46] | – | – | 100% | 100% | 100% | 90% | 100% | 100% | 100% | 100% | 100% | 90% | – | 100% | – | – | 100% | – | –
O=S(=O)(CCC(F)(F)F)Oc1c(F)cccc1Oc1ncc(F)cn1 [Example I-47] | – | – | 100% | 100% | 100% | 100% | 100% | 100% | 100% | 100% | 100% | 100% | 100% | 100% | – | 100% | 100% | – | –
C=CCCS(=O)(=O)Oc1c(F)cccc1Oc1ncc(Cl)cn1 [Example I-50] | 90% | 90% | 90% | 90% | 100% | 90% | 100% | 100% | 100% | 100% | 100% | – | – | 100% | 90% | 90% | 100% | – | –
COCCS(=O)(=O)Oc1c(F)cccc1Oc1ncc(Cl)cn1 [Example I-52] | 90% | 90% | 90% | 100% | 100% | – | 100% | 100% | 100% | 80% | 100% | – | – | 80% | – | 100% | 100% | – | –
O=S(=O)(CCC(F)=C(F)F)Oc1c(F)cccc1Oc1ncc(Cl)cn1 [Example I-70] | – | – | – | – | – | – | – | – | 100% | 100% | 100% | 90% | – | 100% | – | 100% | 100% | 80% | 80%
O=S(=O)(CCC(F)=C(F)F)Oc1c(Cl)cccc1Oc1ncc(Cl)cn1 [Example I-73] | – | 100% | 90% | 100% | 100% | – | – | 90% | – | – | 100% | 80% | – | – | – | – | 100% | – | –
Cc1cccc(Oc2ncc(Cl)cn2)c1OS(=O)(=O)CC1CC(F)(F)C1 [Example I-74] | 100% | 100% | 90% | 100% | 100% | – | – | 90% | 100% | 100% | 100% | 90% | – | – | 90% | – | 90% | – | –
N#Cc1cccc(Oc2ncc(Cl)cn2)c1OS(=O)(=O)CCCC(F)(F)F [Example I-81] | – | – | – | – | – | – | – | – | 80% | 100% | 100% | 90% | 90% | 100% | – | 100% | 100% | 80% | 80%
